Experimental data reported in ChEMBL document CHEMBL4706685 (J Med Chem, 2021).
Values after ≈ are worked out from the molar mass of the structure shown.

Legend:
CYP3A4 = assay: Induction of CYP3A4 mRNA expression in human hepatocytes up to 30 uM relative to positive control; type: ADME, cell-based, Hepatocyte; details: read-out: Activity
[1] = Lipophilicity, logP of compound by HPLC analysis; type: physicochemical
CYP1A2 = assay: Induction of CYP1A2 mRNA expression in human hepatocytes up to 30 uM relative to positive control; type: ADME, cell-based, Hepatocyte; details: read-out: Activity
[2] = Drug excretion in male Sprague-Dawley rat urine/feces assessed as drug recovery at 3 mg/kg, po administered as single dose using [14C]-EC5026 measured through 168 hrs postdose; details: in vivo
CYP2B6 = assay: Induction of CYP2B6 mRNA expression in human hepatocytes up to 30 uM relative to positive control; type: ADME, cell-based, Hepatocyte; details: read-out: Activity
[3] = Drug excretion in female Sprague-Dawley rat urine/feces assessed as drug recovery at […], po administered as single dose using [14C]-EC5026 measured through 168 hrs postdose; details: in vivo
[4] = Terminal half life in human at 8 to 24 mg; type: ADME; details: dose 8-24 mg, read-out: beta t1/2 (converted)
[5] = Solubility in 0.1M sodium phosphate buffer at pH 7.4; type: physicochemical

Emax (CYP3A4)	logP ([1]; read-out: logP)	Emax (CYP1A2)	Drug recovery [2]	Emax (CYP2B6)	Drug recovery [3]	half-life [4]	logP [1]	solubility [5]	Structure (SMILES)
< 20%	6	< 20%	96.5%	< 20%	96.5%	42 h			CC[C@H](C)C(=O)N1CCC(NC(=O)Nc2ccc(OC(F)(F)F)c(F)c2)CC1
							3.2	404.41 µg/mL (≈ 1000 µM)	CC[C@H](C)C(=O)N1CCC(CC(=O)Nc2ccc(OC(F)(F)F)c(F)c2)CC1
	4.2								O=C(Nc1ccc(OC(F)(F)F)c(F)c1)NC1CCN(C(=O)C2CC2)CC1
